Measurements published in patent US11167039B2, “MET antibody drug conjugates” (priority 2016, dated 2021).

What was measured:
Panc-1 = assay: Cell killing, Panc-1; assay type: cell-based, human; set-up: key: Sensitive; Resistant; conditions: Panc-1, PANC Ca
Procedure: (§1) Briefly described, 2-3×10^3 cells/well in 100 μL of culture medium may be plated in 96 well plates and incubated overnight at 37° C., 5% CO2. The MET-ADCs, MET antibody(ies), control MMAE or control hIgG4 conjugated to MMAE with cysteine conjugation antibody(ies) may be diluted 1:3 in serum-free culture medium starting from 100 nM (final) in 50 μL as 3× concentrations to the HT-29 cells. At the end of an additional 5-6 days of cell growth at 37° C. in a humidified incubator with 5% CO2, the plates may be equilibrated to room temperature for 30 minutes and 100 μL/well of CellTiter-Glo® reagent (Promega Corp., Fitchburg, Wis.) may then be added to assess cell viability. Cell viability may be determined by measuring luminescence.
(§2) Various tumor cell lines and normal human cells may be tested for MET-ADC induced cell killing activity essentially as described above in Example 10 as assessed for MET receptor density. MET cell surface density was determined by indirect immunofluorescence staining of cell surface antigens on cultured cells using QIFIKIT (Dako). […] Following a forty-five minute incubation, cells may be incubated for 1 hour on ice with FITC conjugated antibody diluted 1:50 in FACS buffer. Then cells may be washed and receptor numbers may be determined by indirect immunofluorescence staining of the QIFIKIT beads using a Becton Dickinson LSRII flow cytometer.

LS411N = assay: Cell killing, LS411N; assay type: cell-based, human; set-up: key to Sensitive/ Resistant: Sensitive; Resistant
Procedure: as §1, §2

GEO = assay: Cell killing, GEO; assay type: cell-based, human; set-up: key: Sensitive; Resistant; conditions: Colorectal Ca
Procedure: as §1, §2

SNU-5 = assay: Cell killing, SNU-5; assay type: cell-based, human; set-up: key: Sensitive; Resistant; conditions: SNU-5, Gastric Ca
Procedure: as §1, §2

H1993 = assay: Cell killing, H1993; assay type: cell-based, human; set-up: key: Sensitive; Resistant; conditions: H1993, NSCLC
Procedure: as §1, §2

PC3 = assay: Cell killing, PC3; assay type: cell-based, human; set-up: key: Sensitive; Resistant; conditions: PC3, Prostatic Ca
Procedure: as §1, §2

AOSMC = assay: Cell killing, non-tumor AOSMC; assay type: cell-based, human; set-up: key: Sensitive; Resistant; conditions: aortic smooth muscule cell
Procedure: as §1, §2

humen fresh hepatocyte = assay: Cell killing, fresh hepatocyte; assay type: cell-based, human; set-up: key: Sensitive; Resistant
Procedure: as §1, §2

[1] = system: humen fresh activated PBMC; assay: Cell killing, fresh activated PBMC; assay type: cell-based, human; set-up: key: Sensitive; Resistant; conditions: 3 donors
Procedure: as §1, §2

[2] = system: MET expressing tumor cells; assay: Correlation of tumor cell MET expression level and sensitivity to MET-ADC; assay type: cell-based
Procedure: as §1, §2

[3] = system: HT-29 colon cancer tumor xenografts; assay: HT-29 mouse xenograft model; assay type: in vivo; conditions: 1 mg/kg x3 Q7D
Procedure: (§3) Female athymic nude mice age 6- to 7-weeks old are available commercially, including from Harlan Laboratories (Indianapolis, Ind.). The mice are allowed to acclimate for one week and fed ad libitum on a normal low fat (4.5%) diet, which may be continued for the duration of the study. Tumor cells may be purchased from ATCC and may be cultured in cell culture media such as RPMI 1640 (Life Technologies) with L-glutamine, 25 mM HEPES supplemented with 10% FBS and 1 mM Na Pyruvate. Cells may be detached, washed with serum free medium and then resuspended at a final concentration of 50×10^6 cells/mL in serum free RPMI 1640. Tumor cells, approximately 5×10^6, may be injected subcutaneously in the rear flank of subject mice in a 1:1 mixture of serum free growth medium and Matrigel (Becton Dickinson, Bedford, Mass.). Tumor and body weight measurements may be performed twice weekly. Prior to treatment, mice can be randomized based on tumor size using a randomization algorithm. Treatments may be started when the average tumor volume reaches 100 mm^3. […]
MET-ADCs and control hIgG4-MMAE may be prepared in Phosphate Buffered Saline (PBS) prior to dose. Tumor size may be determined by caliper measurements. […] Tumor volume data can be transformed to a log scale to equalize variance across time and treatment groups. Log volume data can be analyzed with two-way repeated measures ANOVA by time and treatment using SAS PROC MIXED software (SAS Institutes Inc, Cary, N.C.). Treatment groups are compared with the specified control group at each time point.

BxPC-3 xenograft = assay: BxPC-3 pancreatic cancer xenograft model; assay type: in vivo, mouse; conditions: vs control hIgG4-Lys-ADC
Procedure: as §3
MET-ADCs and control hIgG4-MMAE may be prepared in Phosphate Buffered Saline (PBS) prior to dose. Tumor size may be determined by caliper measurements. […] Log volume data can be analyzed with two-way repeated measures ANOVA by time and treatment using SAS PROC MIXED software (SAS Institutes Inc, Cary, N.C.). […]

[4] = system: colorectal cancer PDX tumors; assay: Colorectal cancer PDX models; assay type: in vivo, mouse; conditions: 1 or 3 mg/kg weekly, four doses
Description: Body weight can also be assessed regularly.
Colorectal tumor samples from 37 human colorectal cancer patients were individually implanted into different immunocompromised mice (i.e., each mouse carried one tumor derived from a patient's […] tumor) essentially as described above in this Example 13.

MET-ADC#1: emibetuzumab lysine-conjugated via (2,5-dioxopyrrolidin-1-yl) 2-azidoacetate and Octyne-β-Glucn-MMAE
Sensitive/ Resistant (Panc-1): R | cell killing activity in LS411N cells (LS411N; LS411N (BRAF, PIK3) colon cancer cells): killed | Sensitive/ Resistant (LS411N; LS411N, Colorectal Ca): S | Sensitive/ Resistant (GEO): R | Sensitive/ Resistant (SNU-5): S | Sensitive/ Resistant (H1993): S | Sensitive/ Resistant (PC3): S | Sensitive/ Resistant (AOSMC): R | Sensitive/ Resistant (humen fresh hepatocyte): R | Sensitive/ Resistant [1]: R | killing activity compared with MET-ADC #6 ([2]; similar experiments using other cells): superior killing activity than MET-ADC #6 | approximate threshold of MET cell surface density for tumor cell killing ([2]; tumor cells sensitive to MMAE, not secreting HGF): > 32,000 receptor per cells | Observation (efficacy in HT-29 mouse xenograft) [3]: Tumor regression^ | Observation (efficacy in HT-29 mouse xenograft) ([3]; listed as MET-ADC #1): far superior efficacy | anti-tumor activity (BxPC-3 xenograft): dramatic anti-tumor activity | Complete Response (CR) ([4]; 37 PDX): 5.4% | activity in colorectal cancer PDX models ([4]; vs control hIgG4-ADC): little activity
